From US20250090695A1, “IMMUNOSTIMULANT-CYTOTOXIC CONJUGATE COMPOSITION AND METHODS FOR CANCER TREATMENT” (The Research Foundation for the State University of New York, priority 2022, published 2025)

Assays:
[1] = test system: RM1-PGLS tumors; type: in vivo, murine subjects; details: overall survival post treatment; RM1-PGLS tumors; P < 0.0007 printed for 177Lu-RIMS-1
Method: FIG. 11A-11C show a visual schematic of RM1-PGLS tumor insertion in mice followed by T-cell population analysis (FIG. 11A), and tumor efficacy study analysis for in vivo tumor treatment with experimental ^177Lu-RIMS-1 compound compared with control compounds: ^177Lu-PSMA-617, unlabeled Lu-RIMS, and saline (FIG. 11B) measuring tumor volume (left), and percent survival (right).
Murine subjects were treated with RIMS compounds and tumor volume (FIG. 11B, left), subject viability measured as percent survival (FIG. 11B, right), subject weight (FIG. 11C), were described and analyzed as shown in FIGS. 11A-11C. Median overall survivability (OS) in murine subjects treated with RIMS compounds and control therapies.

[2] = Biodistribution in a xenograft model of prostate cancer with PC-3 PiP (PSMA(+)) and PC-3 flu (PSMA(−)) tumors; type: in vivo, Male NCr nude mice; details: PC-3 PiP/PC-3 flu xenograft, NCr nude mice
Method: Biodistribution analyses of ^177Lu-RIMS-1 and ^177Lu-PSMA-617 were carried out in a xenograft model of prostate cancer with a PC-3 PiP tumor (PSMA(+)) on the left shoulder of a murine subject, and a PC-3 flu tumor (PSMA(−)) on the right should of a murine subject. Murine subjects examined were Male NCr nude mice.

[3] = test system: T-cells (CD3); assay: Immuno-PET ROI analysis of 89Zr-DFO-anti-CD3 after therapy (tumor infiltrating T-cells); type: in vivo, murine subjects
Method: FIG. 13A-13C describes a method and results for T-cell detection using immuno-positron emission tomography (PET).
FIG. 14A-14D show graphical representations of tumor infiltrating T-cell analysis after administration of a therapeutic compound or control. Infiltration was measured using immuno-positron emission tomography (PET).

[4] = Biodistribution in a syngeneic model of prostate cancer with a RM1-PGLS tumor; details: 2 h, C57BL/6J mice

O=C([O-])CN1CCN(CC(=O)[O-])CCN(CC(=O)NCC2CCC(C(=O)N[C@@H](Cc3ccc4ccccc4c3)C(=O)NCCCC[C@H](NC(=O)N[C@@H](CCC(=O)O)C(=O)O)C(=O)O)CC2)CCN(CC(=O)[O-])CC1.[177Lu+3] (stereo partly drawn) [^177Lu-PSMA-617]
Median OS [1]: 15 days | Biodistribution Blood (% ID/g ± SD) ([2]; 2 h): 0.95 ± 0.53 % ID/g | Biodistribution Bone (% ID/g ± SD) ([2]; 2 h): 0.21 ± 0.11 % ID/g | Biodistribution Heart (% ID/g ± SD) ([2]; 2 h): 0.27 ± 0.12 % ID/g | Biodistribution Kidney (% ID/g ± SD) ([2]; 2 h): 5.12 ± 1.95 % ID/g | Biodistribution Liver (% ID/g ± SD) ([2]; 2 h): 0.29 ± 0.14 % ID/g | Biodistribution Muscle (% ID/g ± SD) ([2]; 2 h): 0.14 ± 0.05 % ID/g | Biodistribution PSMA (+) (PC3-PIP) tumor (% ID/g ± SD) ([2]; 2 h): 11.78 ± 1.46 % ID/g | Biodistribution PSMA (−) (PC3-Flu) tumor (% ID/g ± SD) ([2]; 2 h): 0.48 ± 0.2 % ID/g | Biodistribution Sm Int (% ID/g ± SD) ([2]; 2 h): 0.28 ± 0.15 % ID/g | Biodistribution Spleen (% ID/g ± SD) ([2]; 2 h): .027 ± 0.14 % ID/g | Biodistribution Blood (% ID/g ± SD) ([2]; 24 h): 0.21 ± 0.13 % ID/g | Biodistribution Bone (% ID/g ± SD) ([2]; 24 h): 0.07 ± 0.010 % ID/g | Biodistribution Heart (% ID/g ± SD) ([2]; 24 h): 0.09 ± 0.05 % ID/g | Biodistribution Kidney (% ID/g ± SD) ([2]; 24 h): 0.57 ± 0.29 % ID/g | Biodistribution Liver (% ID/g ± SD) ([2]; 24 h): 0.08 ± 0.040 % ID/g | Biodistribution Muscle (% ID/g ± SD) ([2]; 24 h): 0.04 ± 0.010 % ID/g | Biodistribution PSMA (+) (PC3-PIP) tumor (% ID/g ± SD) ([2]; 24 h): 8.24 ± 3.22 % ID/g | Biodistribution PSMA (−) (PC3-Flu) tumor (% ID/g ± SD) ([2]; 24 h): 0.18 ± 0.13 % ID/g | Biodistribution Sm Int (% ID/g ± SD) ([2]; 24 h): 0.06 ± 0.020 % ID/g | Biodistribution Spleen (% ID/g ± SD) ([2]; 24 h): 0.08 ± 0.040 % ID/g | Biodistribution Blood (% ID/g ± SD) ([2]; 72 h): 0.03 ± 0.01 % ID/g | Biodistribution Bone (% ID/g ± SD) ([2]; 72 h): 0.05 ± 0.01 % ID/g | Biodistribution Heart (% ID/g ± SD) ([2]; 72 h): 0.03 ± 0.01 % ID/g | Biodistribution Kidney (% ID/g ± SD) ([2]; 72 h): 0.08 ± 0.05 % ID/g | Biodistribution Liver (% ID/g ± SD) ([2]; 72 h): 0.03 ± 0.01 % ID/g | Biodistribution Muscle (% ID/g ± SD) ([2]; 72 h): 0.02 ± 0.01 % ID/g | Biodistribution PSMA (+) (PC3-PIP) tumor (% ID/g ± SD) ([2]; 72 h): 3.65 ± 0.59 % ID/g | Biodistribution PSMA (−) (PC3-Flu) tumor (% ID/g ± SD) ([2]; 72 h): 0.02 ± 0.01 % ID/g | Biodistribution Sm Int (% ID/g ± SD) ([2]; 72 h): 0.03 ± 0.01 % ID/g | Biodistribution Spleen (% ID/g ± SD) ([2]; 72 h): 0.04 ± 0.01 % ID/g | % Injected Dose/cc of 89Zr-DFO-anti-CD3 (ROI) ([3]; Blood, 8 days after administration of therapy): 8.94 ± 0.34 % Injected Dose/cc | % Injected Dose/cc of 89Zr-DFO-anti-CD3 (ROI) ([3]; Blood, 9 days after administration of therapy): 5.85 ± 2.22 % Injected Dose/cc | % Injected Dose/cc of 89Zr-DFO-anti-CD3 (ROI) ([3]; Blood, 10 days after administration of therapy): 4.13 ± 0.68 % Injected Dose/cc | % Injected Dose/cc of 89Zr-DFO-anti-CD3 (ROI) ([3]; Blood, 11 days after administration of therapy): 4.05 ± 1.24 % Injected Dose/cc | % Injected Dose/cc of 89Zr-DFO-anti-CD3 (ROI) ([3]; Blood, 12 days after administration of therapy): 4.26 ± 0.62 % Injected Dose/cc | % Injected Dose/cc of 89Zr-DFO-anti-CD3 (ROI) ([3]; Spleen, 8 days after administration of therapy): 21.55 ± 4.49 % Injected Dose/cc | % Injected Dose/cc of 89Zr-DFO-anti-CD3 (ROI) ([3]; Spleen, 9 days after administration of therapy): 24.84 ± 4.91 % Injected Dose/cc | % Injected Dose/cc of 89Zr-DFO-anti-CD3 (ROI) ([3]; Spleen, 10 days after administration of therapy): 27.09 ± 3.75 % Injected Dose/cc | % Injected Dose/cc of 89Zr-DFO-anti-CD3 (ROI) ([3]; Spleen, 11 days after administration of therapy): 23.82 ± 3.55 % Injected Dose/cc | % Injected Dose/cc of 89Zr-DFO-anti-CD3 (ROI) ([3]; Spleen, 12 days after administration of therapy): 24.65 ± 0.81 % Injected Dose/cc | % Injected Dose/cc of 89Zr-DFO-anti-CD3 (ROI) ([3]; Tumor, 8 days after administration of therapy): 10.27 ± 0.024 % Injected Dose/cc | % Injected Dose/cc of 89Zr-DFO-anti-CD3 (ROI) ([3]; Tumor, 9 days after administration of therapy): 7.83 ± 1.66 % Injected Dose/cc | % Injected Dose/cc of 89Zr-DFO-anti-CD3 (ROI) ([3]; Tumor, 10 days after administration of therapy): 6.67 ± 3.63 % Injected Dose/cc | % Injected Dose/cc of 89Zr-DFO-anti-CD3 (ROI) ([3]; Tumor, 11 days after administration of therapy): 3.90 ± 0.35 % Injected Dose/cc | % Injected Dose/cc of 89Zr-DFO-anti-CD3 (ROI) ([3]; Tumor, 12 days after administration of therapy): 2.72 ± 0.81 % Injected Dose/cc | Biodistribution Blood (% ID/g ± SD) [4]: 0.03 ± 0.02 % ID/g | Biodistribution Bone (% ID/g ± SD) [4]: 0.05 ± 0.05 % ID/g | Biodistribution Heart (% ID/g ± SD) [4]: 0.03 ± 0.01 % ID/g | Biodistribution Kidney (% ID/g ± SD) [4]: 1.39 ± 0.48 % ID/g | Biodistribution Liver (% ID/g ± SD) [4]: 0.17 ± 0.12 % ID/g
